Assays:
GTPase KRas = GTPase KRas (Homo sapiens, UniProt P01116, G12C); assay: Inhibition of N-terminal GST-tagged recombinant human KRAS G12C mutant (1 to 169 residues) expressed in Escherichia coli assessed as reduction in intrinsic GTP exchange preincubated for 10 mins with KRAS followed by SOS1 addition measured after 30 mins in presence of EDA-GTP-DY-647P1 by HTRF analysis
[1] = tested on: Tyrosine-protein kinase ABL1 (Homo sapiens), P00519 [F317I]; assay: Inhibition of nonphosphorylated ABL1 F317I mutant (unknown origin) assessed as residual activity at 100 nM by KINOMEscan analysis relative to control
[2] = molecular target: Calcium/calmodulin-dependent protein kinase kinase 2 (Homo sapiens) (UniProt Q96RR4); assay: Inhibition of CAMKK2 (unknown origin) assessed as residual activity at 100 nM by KINOMEscan analysis relative to control
[3] = molecular target: Casein kinase II subunit alpha (Homo sapiens) (UniProt P68400); assay: Inhibition of CSNK2A1 (unknown origin) assessed as residual activity at 100 nM by KINOMEscan analysis relative to control
[4] = molecular target: T1, Tyrosine-protein kinase JAK3 (Homo sapiens) (UniProt P52333); assay: Inhibition of JAK3 JH1 catalytic domain (unknown origin) assessed as residual activity at 100 nM by KINOMEscan analysis relative to control
T1 sequence (whole entry): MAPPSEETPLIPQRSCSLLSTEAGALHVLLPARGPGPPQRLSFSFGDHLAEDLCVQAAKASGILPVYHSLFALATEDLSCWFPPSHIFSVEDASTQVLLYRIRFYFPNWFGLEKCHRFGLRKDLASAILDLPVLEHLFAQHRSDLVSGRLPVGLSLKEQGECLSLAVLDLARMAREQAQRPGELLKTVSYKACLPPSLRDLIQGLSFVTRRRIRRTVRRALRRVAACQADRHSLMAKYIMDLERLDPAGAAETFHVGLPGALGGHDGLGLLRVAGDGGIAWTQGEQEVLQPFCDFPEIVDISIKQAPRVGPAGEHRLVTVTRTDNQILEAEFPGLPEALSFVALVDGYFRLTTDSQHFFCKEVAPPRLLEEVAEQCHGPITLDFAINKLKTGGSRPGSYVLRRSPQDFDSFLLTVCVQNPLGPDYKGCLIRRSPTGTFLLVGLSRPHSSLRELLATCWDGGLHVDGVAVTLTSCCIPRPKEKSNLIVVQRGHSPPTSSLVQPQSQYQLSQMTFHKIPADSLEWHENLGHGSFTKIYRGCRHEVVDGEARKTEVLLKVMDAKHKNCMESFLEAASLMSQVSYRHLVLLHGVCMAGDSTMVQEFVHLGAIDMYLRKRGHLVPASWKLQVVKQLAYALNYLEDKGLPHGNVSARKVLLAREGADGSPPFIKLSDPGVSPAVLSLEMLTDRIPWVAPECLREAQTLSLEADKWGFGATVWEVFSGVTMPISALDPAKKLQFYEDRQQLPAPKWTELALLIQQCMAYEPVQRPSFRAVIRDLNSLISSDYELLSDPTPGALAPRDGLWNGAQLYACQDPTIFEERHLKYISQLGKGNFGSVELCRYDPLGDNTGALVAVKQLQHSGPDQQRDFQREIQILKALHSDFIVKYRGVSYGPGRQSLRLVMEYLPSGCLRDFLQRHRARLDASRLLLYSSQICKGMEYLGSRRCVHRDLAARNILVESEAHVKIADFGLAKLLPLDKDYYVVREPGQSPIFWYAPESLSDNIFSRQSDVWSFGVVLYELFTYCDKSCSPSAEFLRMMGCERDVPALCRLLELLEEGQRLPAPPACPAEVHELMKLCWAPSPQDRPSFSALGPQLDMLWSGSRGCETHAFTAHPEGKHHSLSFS

[5] = molecular target: Mitogen-activated protein kinase kinase kinase 1 (Homo sapiens) (UniProt Q13233); assay: Inhibition of MAP3K1 (unknown origin) assessed as residual activity at 100 nM by KINOMEscan analysis relative to control
[6] = molecular target: Mitogen-activated protein kinase kinase kinase 10 (Homo sapiens) (UniProt Q02779); assay: Inhibition of MLK2 (unknown origin) assessed as residual activity at 100 nM by KINOMEscan analysis relative to control
[7] = molecular target: Cyclin-dependent kinase 14 (Homo sapiens) (UniProt O94921); assay: Inhibition of PFTK1 (unknown origin) assessed as residual activity at 100 nM by KINOMEscan analysis relative to control
[8] = molecular target: T2, Serine/threonine-protein kinase tousled-like 1 (Homo sapiens) (UniProt Q9UKI8); assay: Inhibition of TLK1 (unknown origin) assessed as residual activity at 100 nM by KINOMEscan analysis relative to control
T2 sequence (whole entry): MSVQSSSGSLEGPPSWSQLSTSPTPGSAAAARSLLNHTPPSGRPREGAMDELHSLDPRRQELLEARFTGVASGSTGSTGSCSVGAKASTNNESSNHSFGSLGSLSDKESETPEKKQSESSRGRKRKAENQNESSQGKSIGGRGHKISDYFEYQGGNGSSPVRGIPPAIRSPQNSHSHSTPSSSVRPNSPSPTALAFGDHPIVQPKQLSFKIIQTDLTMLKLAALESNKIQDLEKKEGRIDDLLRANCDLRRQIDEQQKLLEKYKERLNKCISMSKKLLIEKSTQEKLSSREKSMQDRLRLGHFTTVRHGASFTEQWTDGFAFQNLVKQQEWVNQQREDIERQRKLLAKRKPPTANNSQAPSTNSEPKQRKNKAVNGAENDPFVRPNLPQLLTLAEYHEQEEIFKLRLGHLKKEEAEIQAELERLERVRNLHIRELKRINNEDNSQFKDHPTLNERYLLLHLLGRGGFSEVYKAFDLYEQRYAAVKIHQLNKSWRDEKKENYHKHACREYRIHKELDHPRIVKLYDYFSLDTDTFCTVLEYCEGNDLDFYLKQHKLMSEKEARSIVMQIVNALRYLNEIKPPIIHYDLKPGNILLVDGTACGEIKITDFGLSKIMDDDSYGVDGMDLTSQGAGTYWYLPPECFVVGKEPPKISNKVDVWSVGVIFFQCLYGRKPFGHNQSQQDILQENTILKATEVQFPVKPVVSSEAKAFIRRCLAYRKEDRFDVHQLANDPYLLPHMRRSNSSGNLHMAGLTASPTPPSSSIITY

[9] = molecular target: Serine/threonine-protein kinase OSR1 (Homo sapiens) (UniProt O95747); assay: Inhibition of OSR1 (unknown origin) assessed as residual activity at 100 nM by KINOMEscan analysis relative to control

COc1cc2ncnc(N[C@H](C)c3cccc4ccccc34)c2cc1OC
IC50 (GTPase KRas): > 20 µM | Activity [1]: 85% | Activity [2]: 60% | Activity [3]: 96% | Activity [4]: 84% | Activity [5]: 100% | Activity [6]: 100% | Activity [7]: 91% | Activity [8]: 79% | Activity [9]: 89%
